Experimental data from ChEMBL document CHEMBL4190185 (Medchemcomm, 2016).
Active and inactive are the calls of the source. No cut-off for these calls is given here.

What was measured:
[1] = biological target: Estrogen receptor beta (Mus musculus) (UniProt O08537); experiment: Activation of ERbeta in mouse calvarial osteoblasts assessed as induction of osteoblast differentiation by measuring increase in ALP activity at 1 pM using PNPP as substrate after 48 hrs by colorimetric method
Calvarial osteoblast [2] = experiment: Cytotoxicity against mouse calvarial osteoblasts at 0.000001 to 1 uM after 48 hrs by MTT assay; format: cell-based
[3] = biological target: Estrogen receptor beta (Mus musculus) (UniProt O08537); experiment: Activation of ERbeta in mouse calvarial osteoblasts assessed as induction of mineralization by measuring increase in calcium nodules at 1 pM supplemented with fresh medium containing compounds every 48 hrs for 18 days measured on day 18 by alizarin red-S staining based colorimetric method relative to control
Calvarial osteoblast [4] = experiment: Induction of osteoblast differentiation in mouse calvarial osteoblasts assessed as increase in BMP2 mRNA expression at 1 to 100 pM after 48 hrs by SYBR green1 staining based RT-qPCR analysis; format: functional, cell-based
Calvarial osteoblast [5] = experiment: Induction of osteoblast differentiation in mouse calvarial osteoblasts assessed as increase in RUNX2 mRNA expression at 1 to 100 pM after 48 hrs by SYBR green1 staining based RT-qPCR analysis; format: functional, cell-based
Calvarial osteoblast [6] = experiment: Induction of osteoblast differentiation in mouse calvarial osteoblasts assessed as increase in osterix mRNA expression at 1 to 100 pM after 48 hrs by SYBR green1 staining based RT-qPCR analysis; format: functional, cell-based
[7] = biological target: T1, Estrogen receptor (Mus musculus) (UniProt P19785); experiment: Up regulation of ERalpha expression in mouse calvarial osteoblasts at 1 to 100 pM after 48 hrs by Western blot analysis
T1 sequence (whole entry): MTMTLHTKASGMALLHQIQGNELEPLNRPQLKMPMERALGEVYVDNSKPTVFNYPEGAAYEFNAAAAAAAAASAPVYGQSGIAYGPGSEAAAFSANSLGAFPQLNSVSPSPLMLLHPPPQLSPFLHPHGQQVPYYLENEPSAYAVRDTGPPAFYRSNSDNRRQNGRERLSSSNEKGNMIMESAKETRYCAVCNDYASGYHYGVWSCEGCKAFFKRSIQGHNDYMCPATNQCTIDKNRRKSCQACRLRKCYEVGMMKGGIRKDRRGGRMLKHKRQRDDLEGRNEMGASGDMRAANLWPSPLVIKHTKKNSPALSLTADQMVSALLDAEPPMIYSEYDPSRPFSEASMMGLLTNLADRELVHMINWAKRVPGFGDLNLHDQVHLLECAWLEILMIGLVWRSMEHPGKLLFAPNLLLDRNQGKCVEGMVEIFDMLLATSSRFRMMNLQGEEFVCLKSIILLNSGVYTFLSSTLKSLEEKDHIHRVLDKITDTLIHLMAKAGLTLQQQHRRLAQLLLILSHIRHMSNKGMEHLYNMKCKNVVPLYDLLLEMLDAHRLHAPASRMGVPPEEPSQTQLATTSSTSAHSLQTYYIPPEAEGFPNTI

[8] = biological target: Estrogen receptor beta (Mus musculus) (UniProt O08537); experiment: Up regulation of ERbeta expression in mouse calvarial osteoblasts at 1 to 100 pM after 48 hrs by Western blot analysis

Estrogen receptor beta (Mus musculus), sequence (O08537 whole entry): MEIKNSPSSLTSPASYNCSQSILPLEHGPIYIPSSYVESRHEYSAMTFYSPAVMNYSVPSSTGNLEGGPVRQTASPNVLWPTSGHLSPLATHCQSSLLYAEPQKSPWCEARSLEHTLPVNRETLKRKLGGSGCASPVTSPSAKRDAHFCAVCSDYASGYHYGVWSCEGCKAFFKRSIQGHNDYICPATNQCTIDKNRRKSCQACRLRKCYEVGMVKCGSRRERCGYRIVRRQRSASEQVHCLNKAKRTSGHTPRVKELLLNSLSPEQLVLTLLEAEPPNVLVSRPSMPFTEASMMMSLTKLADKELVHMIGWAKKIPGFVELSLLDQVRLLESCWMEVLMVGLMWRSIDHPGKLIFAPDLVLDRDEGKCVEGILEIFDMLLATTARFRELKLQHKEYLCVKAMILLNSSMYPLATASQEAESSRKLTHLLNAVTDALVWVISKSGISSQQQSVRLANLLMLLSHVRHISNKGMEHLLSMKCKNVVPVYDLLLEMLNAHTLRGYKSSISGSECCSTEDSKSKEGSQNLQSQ

Row | SMILES | Activity [1] | Activity (Calvarial osteoblast [2]) | Activity [3] [%] | Activity (Calvarial osteoblast [4]) | Activity (Calvarial osteoblast [5]) | Activity (Calvarial osteoblast [6]) | Activity [7] | Activity [8]
1 | COc1ccc(C2COc3cc(OCCCCCC(C)(C)O)ccc3C2)cc1 (centres undefined) | Active | Non-Toxic | – | – | – | – | – | –
2 | COc1ccc(C2COc3cc(OCCCCC(C)(C)O)ccc3C2)cc1 (centres undefined) | Active | Non-Toxic | 20 | Active | Active | Active | Active | Active
3 | CCC(O)(CC)CCCCOc1ccc2c(c1)OCC(c1ccc(OC)cc1)C2 (centres undefined) | Active | Non-Toxic | – | – | – | – | – | –
4 | CCOC(=O)CCCCCOc1ccc2c(c1)OCC(c1ccc(OC)cc1)C2 (centres undefined) | Active | Non-Toxic | – | – | – | – | – | –
